Test results: US9750747B2, “Treatments involving eslicarbazepine acetate or eslicarbazepine” (BAIL-PORTELA & CA, S.A., priority 2011, dated 2017)
“Also recorded” adds a separate entry of the source. Like-named read-outs stand apart in the source and are kept apart here.

How the values were obtained:
[1] = molecular target: T1, human T-type calcium channels hCav3.2 (Homo sapiens, UniProt O95180); assay: whole-cell patch-clamp, calcium peak currents in stably transfected HEK 293 cells; format: cell-based; design: blocked calcium peak currents by: unit not given here; details: for Relative current amplitude (%): hCav3.2 in HEK 293 cells; for IC50: two site binding model
T1 construct: expressed in transfected cells; host or cells: HEK 293 cells (European Collection of Animal Cell Culture)
Method: A study was carried out to determine the effect of eslicarbazepine.
Cells were stably transfected with hCav3.2 cDNA.
Calcium inward currents were measured upon depolarization of the cell membrane to −25 mV for 50 ms from a holding potential of −80 mV. This voltage protocol was run at intervals of 10 s until stabilization of evoked hCav3.2 currents. […] Vehicle was either bath solution or 0.2% DMSO.
Analysis of variance (ANOVA) with post test multisample comparison (Dunnett) was conducted with GraphPad Prism 4 Software. IC50 were calculated with the equation: […]

[2] = molecular target: T2, α1β2γ2 GABA receptors (Homo sapiens, UniProt P14867+P18507+P47870); assay: whole-cell patch-clamp, sub-maximal GABA inward currents in stably transfected Ltk cells; format: cell-based
T2 construct: host or cells: Ltk cells, expression induced with dexamethasone
Method: (§1) Carbamazepine (CBZ) aggravates absence seizures in ‘generalized absence epilepsy rats from. Strasbourg’. One putative mechanism for the aggravation is through its reported potentiation of GABAA currents. A study was carried out to determine the effect of eslicarbazepine, R-licarbazepine and carbamazepine on sub-maximal GABA currents in Ltk cells stably expressing α1β2γ2, α2β2γ2, α3β2γ2 or α5β2γ2 GABA-receptors. The whole-cell patch-clamp technique was used to investigate the effects of the test compounds on GABAA receptors.
(§2) Used Ltk cells were stably transfected with recombinant GABAA cDNAs: α1β2γ2, α2β2γ2, α3β2γ2 or α5β2γ2 (B'SYS GmbH, Switzerland). […] For the electrophysiological experiments cells were cultivated, at a density that enabled single cells to be measured, in medium without antibiotics or antimycotics. Cells were tested 24-48 hours following induction of transgene expression with dexamethasone.
(§3) The whole-cell patch clamp recordings from transfected Ltk cells (voltage-clamped at a holding potential of −80 mV) were made using a EPC-7, HEKA Electronics amplifier. GABA inward-currents were measured upon application of 1 or 2 μM GABA to patch-clamped cells (at an EC5).
(§4) Analysis of Variance (ANOVA) with post test multisample comparison (Dunnett) was conducted with GraphPad Prism 4 Software.

[3] = molecular target: T3, α2β2γ2 GABA receptors (Homo sapiens, UniProt P18507+P47869+P47870); assay: as above; format: cell-based
T3 construct: host or cells: Ltk cells, expression induced with dexamethasone
Method: as §1, §2, §3, §4

[4] = molecular target: T4, α3β2γ2 GABA receptors (Homo sapiens, UniProt P18507+P34903+P47870); assay: as above; format: cell-based
T4 construct: host or cells: Ltk cells, expression induced with dexamethasone
Method: as §1, §2, §3, §4

[5] = molecular target: T5, α5β2γ2 GABA receptors (Homo sapiens, UniProt P18507+P31644+P47870); assay: as above; format: cell-based
T5 construct: host or cells: Ltk cells, expression induced with dexamethasone
Method: as §1, §2, §3, §4

[6] = system: α1β2γ2, α2β2γ2, α3β2γ2 or α5β2γ2 GABA-receptors; assay: overall effect on sub-maximal GABA currents (summary of Example 1); format: cell-based; details: Ltk cells, all four receptor subtypes
Method: as §1
Used Ltk cells were stably transfected with recombinant GABAA cDNAs: α1β2γ2, α2β2γ2, α3β2γ2 or α5β2γ2 (B'SYS GmbH, Switzerland). Cells were maintained in a humidified atmosphere (95% relative humidity) with 5% CO2 and were grown in D-MEM/F-12 (1×, liquid, with GlutaMax 1) supplemented with 9% foetal bovine serum and 0.9% Penicillin/Streptomycin solution (Gibco BRL). For the electrophysiological experiments cells were cultivated, at a density that enabled single cells to be measured, in medium without antibiotics or antimycotics. Cells were tested 24-48 hours following induction of transgene expression with dexamethasone.
Cells were continuously perfused with bath solution (NaCl 137 mM, KCl 4 mM, CaCl2 1.8 mM, MgCl2 1 mM, D-Glucose 10 mM HEPES 10 mM, pH 7.4). […] GABA inward-currents were measured upon application of 1 or 2 μM GABA to patch-clamped cells (at an EC5). […]

[7] = system: absence seizure; assay: mouse absence seizure models (γ-butyrolactone induced, SSADH null, stargazer, C3H/He); format: in vivo; details: mice models (a)-(d)
[8] = 50 μM with GABA at EC5, Ltk cells, Table 2
[9] = 100 μM with GABA at EC5, Ltk cells, Table 2
[10] = 250 μM with GABA at EC5, Ltk cells, Table 2
[11] = 500 μM with GABA at EC5, Ltk cells, Table 2
[12] = 1000 μM with GABA at EC5, Ltk cells, Table 2
[13] = high affinity fit, read-out: hCav3.2 IC50 (μM) High affinity
[14] = low affinity fit, read-out: hCav3.2 IC50 (μM) Low affinity
[15] = 50 μM with GABA at EC5, Ltk cells, Table 1
[16] = 100 μM with GABA at EC5, Ltk cells, Table 1
[17] = 250 μM with GABA at EC5, Ltk cells, Table 1
[18] = 500 μM with GABA at EC5, Ltk cells, Table 1

T4 sequence (P34903 29-492): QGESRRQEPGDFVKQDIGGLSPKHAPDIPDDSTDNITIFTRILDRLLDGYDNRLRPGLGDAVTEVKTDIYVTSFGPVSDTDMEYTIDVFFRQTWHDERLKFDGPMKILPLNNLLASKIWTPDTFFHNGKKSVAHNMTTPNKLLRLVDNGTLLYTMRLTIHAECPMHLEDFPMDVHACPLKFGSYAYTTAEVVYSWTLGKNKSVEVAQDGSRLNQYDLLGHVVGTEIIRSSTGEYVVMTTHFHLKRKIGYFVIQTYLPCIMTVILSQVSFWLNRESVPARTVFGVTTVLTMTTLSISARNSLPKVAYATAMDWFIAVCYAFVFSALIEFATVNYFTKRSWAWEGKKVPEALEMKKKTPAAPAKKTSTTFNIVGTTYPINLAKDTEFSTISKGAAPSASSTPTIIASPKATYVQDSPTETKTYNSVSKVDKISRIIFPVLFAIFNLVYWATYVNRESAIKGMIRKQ
T4 sequence (P47870 25-512 limits assumed): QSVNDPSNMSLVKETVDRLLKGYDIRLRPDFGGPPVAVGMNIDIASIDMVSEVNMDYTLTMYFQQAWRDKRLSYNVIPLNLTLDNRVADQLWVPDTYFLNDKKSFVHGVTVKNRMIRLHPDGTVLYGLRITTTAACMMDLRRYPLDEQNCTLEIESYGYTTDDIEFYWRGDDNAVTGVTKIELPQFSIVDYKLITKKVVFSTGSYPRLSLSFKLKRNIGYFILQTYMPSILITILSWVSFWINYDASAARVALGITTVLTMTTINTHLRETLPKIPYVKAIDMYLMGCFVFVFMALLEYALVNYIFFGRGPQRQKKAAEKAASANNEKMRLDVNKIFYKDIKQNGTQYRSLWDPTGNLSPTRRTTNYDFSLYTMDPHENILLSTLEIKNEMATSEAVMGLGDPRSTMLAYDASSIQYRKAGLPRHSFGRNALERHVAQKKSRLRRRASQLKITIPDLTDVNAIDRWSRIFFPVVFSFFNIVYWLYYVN
T4 sequence (P18507 40-475): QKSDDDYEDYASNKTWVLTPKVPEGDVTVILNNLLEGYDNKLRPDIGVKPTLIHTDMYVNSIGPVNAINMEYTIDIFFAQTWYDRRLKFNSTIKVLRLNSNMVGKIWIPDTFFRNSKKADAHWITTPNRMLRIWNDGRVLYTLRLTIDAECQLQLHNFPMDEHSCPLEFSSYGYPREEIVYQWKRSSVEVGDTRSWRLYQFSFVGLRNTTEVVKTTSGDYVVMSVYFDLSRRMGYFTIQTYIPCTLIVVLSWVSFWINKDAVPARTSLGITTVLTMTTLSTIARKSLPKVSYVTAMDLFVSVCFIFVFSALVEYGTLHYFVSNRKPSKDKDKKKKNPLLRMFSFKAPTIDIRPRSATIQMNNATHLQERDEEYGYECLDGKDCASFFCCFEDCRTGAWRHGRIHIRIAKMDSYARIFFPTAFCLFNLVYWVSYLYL
T5 sequence (P31644 32-462): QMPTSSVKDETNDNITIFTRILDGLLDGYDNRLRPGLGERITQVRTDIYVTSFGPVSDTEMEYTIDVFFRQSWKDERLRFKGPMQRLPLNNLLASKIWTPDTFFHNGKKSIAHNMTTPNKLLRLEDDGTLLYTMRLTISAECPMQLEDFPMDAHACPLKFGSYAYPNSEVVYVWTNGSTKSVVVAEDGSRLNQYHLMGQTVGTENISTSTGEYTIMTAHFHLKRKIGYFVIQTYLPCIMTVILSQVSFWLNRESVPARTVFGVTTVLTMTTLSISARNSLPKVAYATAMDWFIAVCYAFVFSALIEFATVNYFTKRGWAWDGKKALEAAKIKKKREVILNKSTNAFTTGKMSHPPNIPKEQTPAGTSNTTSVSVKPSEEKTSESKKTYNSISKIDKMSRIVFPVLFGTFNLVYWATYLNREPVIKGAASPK
T5 sequence (P47870 25-512 limits assumed): as the sequence (P47870 25-512 limits assumed) above
T5 sequence (P18507 40-475): as the sequence (P18507 40-475) above
T2 sequence (P14867 28-456): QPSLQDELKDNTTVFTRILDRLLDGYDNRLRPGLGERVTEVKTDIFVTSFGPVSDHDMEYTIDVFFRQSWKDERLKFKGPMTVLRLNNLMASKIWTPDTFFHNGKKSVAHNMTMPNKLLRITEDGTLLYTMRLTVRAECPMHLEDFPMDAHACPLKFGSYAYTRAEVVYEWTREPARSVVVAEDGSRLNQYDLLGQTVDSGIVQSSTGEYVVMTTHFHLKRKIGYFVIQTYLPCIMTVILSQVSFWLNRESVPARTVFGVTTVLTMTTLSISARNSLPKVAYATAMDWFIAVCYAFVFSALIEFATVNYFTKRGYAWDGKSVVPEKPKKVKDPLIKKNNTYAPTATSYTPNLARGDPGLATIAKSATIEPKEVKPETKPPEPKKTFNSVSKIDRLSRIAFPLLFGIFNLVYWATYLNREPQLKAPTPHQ
T2 sequence (P47870 25-512 limits assumed): as the sequence (P47870 25-512 limits assumed) above
T2 sequence (P18507 40-475): as the sequence (P18507 40-475) above
T1 sequence (O95180 whole entry): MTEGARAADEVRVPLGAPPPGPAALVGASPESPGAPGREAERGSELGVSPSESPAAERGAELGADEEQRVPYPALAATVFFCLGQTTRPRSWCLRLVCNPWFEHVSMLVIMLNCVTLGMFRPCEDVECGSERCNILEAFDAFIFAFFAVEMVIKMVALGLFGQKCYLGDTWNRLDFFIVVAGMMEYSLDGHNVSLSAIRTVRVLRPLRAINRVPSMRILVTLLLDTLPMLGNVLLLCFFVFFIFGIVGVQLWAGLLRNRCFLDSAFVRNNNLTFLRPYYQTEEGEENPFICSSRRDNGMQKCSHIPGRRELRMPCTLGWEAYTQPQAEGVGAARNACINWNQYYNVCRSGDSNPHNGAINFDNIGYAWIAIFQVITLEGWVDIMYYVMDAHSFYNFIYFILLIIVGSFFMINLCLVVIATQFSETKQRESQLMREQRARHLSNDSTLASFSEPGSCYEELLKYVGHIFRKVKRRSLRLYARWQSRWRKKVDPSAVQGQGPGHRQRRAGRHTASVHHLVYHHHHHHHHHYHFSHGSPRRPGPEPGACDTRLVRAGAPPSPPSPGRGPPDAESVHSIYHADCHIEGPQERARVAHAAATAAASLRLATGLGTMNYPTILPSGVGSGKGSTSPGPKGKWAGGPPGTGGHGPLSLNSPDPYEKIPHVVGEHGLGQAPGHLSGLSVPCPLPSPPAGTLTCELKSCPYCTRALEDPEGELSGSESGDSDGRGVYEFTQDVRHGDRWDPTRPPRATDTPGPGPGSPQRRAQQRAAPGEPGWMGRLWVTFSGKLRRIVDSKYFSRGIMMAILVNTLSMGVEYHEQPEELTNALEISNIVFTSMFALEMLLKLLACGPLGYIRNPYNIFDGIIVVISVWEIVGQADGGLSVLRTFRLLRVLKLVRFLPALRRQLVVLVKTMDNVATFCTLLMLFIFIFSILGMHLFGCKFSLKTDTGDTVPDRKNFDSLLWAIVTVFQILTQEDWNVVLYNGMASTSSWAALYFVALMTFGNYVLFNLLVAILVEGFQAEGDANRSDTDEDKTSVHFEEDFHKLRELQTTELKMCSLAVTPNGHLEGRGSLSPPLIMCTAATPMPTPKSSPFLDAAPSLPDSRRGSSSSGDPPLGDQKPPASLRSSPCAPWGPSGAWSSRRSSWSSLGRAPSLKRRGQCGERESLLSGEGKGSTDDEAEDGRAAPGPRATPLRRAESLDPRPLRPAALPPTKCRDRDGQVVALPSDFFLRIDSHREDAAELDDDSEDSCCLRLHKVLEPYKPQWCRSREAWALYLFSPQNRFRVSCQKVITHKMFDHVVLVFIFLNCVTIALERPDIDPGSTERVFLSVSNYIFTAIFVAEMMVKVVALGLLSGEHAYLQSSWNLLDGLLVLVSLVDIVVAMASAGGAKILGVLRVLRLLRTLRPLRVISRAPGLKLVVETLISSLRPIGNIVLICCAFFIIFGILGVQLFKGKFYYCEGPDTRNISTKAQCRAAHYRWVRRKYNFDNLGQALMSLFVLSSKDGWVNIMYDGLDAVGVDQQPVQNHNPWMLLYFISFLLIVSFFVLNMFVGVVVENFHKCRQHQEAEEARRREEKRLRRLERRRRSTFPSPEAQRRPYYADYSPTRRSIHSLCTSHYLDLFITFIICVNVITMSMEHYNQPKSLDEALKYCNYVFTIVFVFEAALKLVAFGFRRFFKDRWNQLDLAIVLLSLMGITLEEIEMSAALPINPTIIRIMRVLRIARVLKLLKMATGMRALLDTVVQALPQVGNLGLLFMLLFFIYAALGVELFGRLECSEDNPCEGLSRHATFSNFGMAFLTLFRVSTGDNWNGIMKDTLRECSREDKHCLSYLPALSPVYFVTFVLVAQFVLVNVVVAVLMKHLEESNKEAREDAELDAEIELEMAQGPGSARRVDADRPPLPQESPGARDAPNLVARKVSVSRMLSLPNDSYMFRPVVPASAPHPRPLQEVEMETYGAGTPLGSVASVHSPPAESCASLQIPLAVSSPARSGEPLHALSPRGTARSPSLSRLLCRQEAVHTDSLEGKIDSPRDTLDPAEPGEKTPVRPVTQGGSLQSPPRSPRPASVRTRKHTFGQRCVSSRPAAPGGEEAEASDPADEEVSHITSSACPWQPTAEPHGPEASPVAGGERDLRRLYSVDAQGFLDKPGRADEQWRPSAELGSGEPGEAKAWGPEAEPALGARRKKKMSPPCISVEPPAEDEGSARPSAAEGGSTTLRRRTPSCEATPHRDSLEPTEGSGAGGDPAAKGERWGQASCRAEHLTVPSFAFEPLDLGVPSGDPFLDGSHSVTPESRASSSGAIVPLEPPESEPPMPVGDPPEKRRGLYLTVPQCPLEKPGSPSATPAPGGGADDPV

SMILES: COCC(=O)O[C@]1(CCN(C)CCCc2nc3ccccc3[nH]2)CCc2cc(F)ccc2[C@@H]1C(C)C [Mibefradil]
- effect on hCav3.2 calcium peak currents (in words) [1]: dose dependently inhibited

SMILES: NC(=O)N1c2ccccc2C=Cc2ccccc21 [Carbamazepine, 5H-dibenzo[b,f]azepine-5-carboxamide]
- Current stimulation (%) α1β2γ2 [2, 8]: 104.30 ± 5.02%
- Current stimulation (%) α1β2γ2 [2, 9]: 117.38 ± 4.94%
- Current stimulation (%) α1β2γ2 [2, 10]: 115.68 ± 5.31%
- Current stimulation (%) α1β2γ2 [2, 11]: 132.42 ± 5.31 %
- Current stimulation (%) α1β2γ2 [2, 12]: 150.26 ± 15.48 %
- Current stimulation (%) α2β2γ2 [3, 8]: 97.94 ± 3.34%
- Current stimulation (%) α2β2γ2 [3, 9]: 111.36 ± 2.65%
- Current stimulation (%) α2β2γ2 [3, 10]: 109.03 ± 7.61%
- Current stimulation (%) α2β2γ2 [3, 11]: 103.60 ± 7.61%
- Current stimulation (%) α2β2γ2 [3, 12]: 104.18 ± 2.66%
- Current stimulation (%) α3β2γ2 [4, 8]: 93.32 ± 4.07%
- Current stimulation (%) α3β2γ2 [4, 9]: 112.76 ± 5.40%
- Current stimulation (%) α3β2γ2 [4, 10]: 131.06 ± 9.39%
- Current stimulation (%) α3β2γ2 [4, 11]: 120.27 ± 11.81%
- Current stimulation (%) α3β2γ2 [4, 12]: 166.66 ± 21.00 %
- Current stimulation (%) α5β2γ2 [5, 8]: 103.82 ± 1.50%
- Current stimulation (%) α5β2γ2 [5, 9]: 103.83 ± 4.53%
- Current stimulation (%) α5β2γ2 [5, 10]: 93.59 ± 4.30%
- Current stimulation (%) α5β2γ2 [5, 11]: 80.65 ± 5.86%
- Current stimulation (%) α5β2γ2 [5, 12]: 63.01 ± 4.50 %
- effect on hCav3.2 calcium peak currents (in words) [1]: dose dependently inhibited
- Relative current amplitude (%) ([1]; 25 μM): 87.58 ± 2.94%
- Relative current amplitude (%) ([1]; 50 μM): 76.53 ± 5.48%
- Relative current amplitude (%) ([1]; 100 μM): 69.98 ± 4.47%
- Relative current amplitude (%) ([1]; 250 μM): 59.47 ± 6.06 %
- Relative current amplitude (%) ([1]; 500 μM): 45.66 ± 7.45 %
- IC50 [1, 13]: 27.1 µM
- IC50 [1, 14]: 711 µM

SMILES: CCCC(CCC)C(=O)O [valproic acid]
- blocked calcium peak currents by ([1]; 1 mM, n=8 cells): 66.15±2.05

SMILES: NC(=O)N1c2ccccc2CC(=O)c2ccccc21 [Oxcarbazepine, 10,11-dihydro-10-oxo-5H-dibenz[b,f]azepine-5-carboxamide]
- effect on hCav3.2 currents (in words) ([1]; up to 30 μM): devoid of effect

SMILES: Cc1ncc2n1-c1ccc(Cl)cc1C(c1ccccc1F)=NC2 [Midazolam]
- Current stimulation (%) α1β2γ2 ([2]; 3 μM with GABA at EC5, Ltk cells, Table 1): 184.81 ± 32.93 %

SMILES: NC(=O)N1c2ccccc2C[C@@H](O)c2ccccc21 [R-licarbazepine]
- Current stimulation (%) α1β2γ2 [2, 15]: 99.85 ± 1.18%
- Current stimulation (%) α1β2γ2 [2, 16]: 92.53 ± 4.53%
- Current stimulation (%) α1β2γ2 [2, 17]: 91.73 ± 4.69%
- Current stimulation (%) α1β2γ2 [2, 18]: 95.83 ± 6.63%
- Current stimulation (%) α2β2γ2 [3, 15]: 96.48 ± 2.11%
- Current stimulation (%) α2β2γ2 [3, 16]: 97.03 ± 2.27%
- Current stimulation (%) α2β2γ2 [3, 17]: 93.79 ± 3.09%
- Current stimulation (%) α2β2γ2 [3, 18]: 87.75 ± 1.94 %
- Current stimulation (%) α3β2γ2 [4, 15]: 99.53 ± 2.65%
- Current stimulation (%) α3β2γ2 [4, 16]: 100.38 ± 1.56%
- Current stimulation (%) α3β2γ2 [4, 17]: 102.94 ± 3.34%
- Current stimulation (%) α3β2γ2 [4, 18]: 97.35 ± 2.91%
- Current stimulation (%) α5β2γ2 [5, 15]: 96.13 ± 0.57%
- Current stimulation (%) α5β2γ2 [5, 16]: 94.09 ± 1.27%
- Current stimulation (%) α5β2γ2 [5, 17]: 97.24 ± 1.58%
- Current stimulation (%) α5β2γ2 [5, 18]: 92.25 ± 1.29%
- effect on hCav3.2 calcium peak currents (in words) [1]: dose dependently inhibited
- Relative current amplitude (%) ([1]; 0.3 μM): 98.42 ± 1.33%
- Relative current amplitude (%) ([1]; 1 μM): 92.43 ± 1.41%
- Relative current amplitude (%) ([1]; 3 μM): 88.21 ± 1.03 %
- Relative current amplitude (%) ([1]; 10 μM): 82.92 ± 1.29 %
- Relative current amplitude (%) ([1]; 30 μM): 78.21 ± 2.14 %
- Relative current amplitude (%) ([1]; 50 μM): 73.86 ± 3.78 %
- Relative current amplitude (%) ([1]; 100 μM): 71.61 ± 1.68 %
- Relative current amplitude (%) ([1]; 250 μM): 64.52 ± 3.05 %
- Relative current amplitude (%) ([1]; 500 μM): 58.10 ± 2.74 %
- Relative current amplitude (%) ([1]; 1000 μM): 39.37 ± 5.33 %
- IC50 [1, 13]: 6.54 µM
- IC50 [1, 14]: 883 µM
- effects upon sub-maximal GABA currents (in words) [6]: devoid of effects

SMILES: NC(=O)N1c2ccccc2C[C@H](O)c2ccccc21 [Eslicarbazepine, (S)-10-hydroxy-10,11-dihydro-5H-dibenz[b,f]azepine-5-carboxamide]
- Current stimulation (%) α1β2γ2 [2, 15]: 103.3 ± 1.96%
- Current stimulation (%) α1β2γ2 [2, 16]: 95.92 ± 0.83%
- Current stimulation (%) α1β2γ2 [2, 17]: 97.82 ± 1.13%
- Current stimulation (%) α1β2γ2 [2, 18]: 99.39 ± 0.80%
- Current stimulation (%) α2β2γ2 [3, 15]: 91.58 ± 2.69%
- Current stimulation (%) α2β2γ2 [3, 16]: 97.04 ± 2.65%
- Current stimulation (%) α2β2γ2 [3, 17]: 88.56 ± 3.24 %
- Current stimulation (%) α2β2γ2 [3, 18]: 89.80 ± 4.01%
- Current stimulation (%) α3β2γ2 [4, 15]: 95.61 ± 4.75%
- Current stimulation (%) α3β2γ2 [4, 16]: 97.93 ± 4.22%
- Current stimulation (%) α3β2γ2 [4, 17]: 96.44 ± 2.16%
- Current stimulation (%) α3β2γ2 [4, 18]: 91.63 ± 5.56%
- Current stimulation (%) α5β2γ2 [5, 15]: 95.18 ± 2.18%
- Current stimulation (%) α5β2γ2 [5, 16]: 93.89 ± 0.60%
- Current stimulation (%) α5β2γ2 [5, 17]: 93.52 ± 1.75%
- Current stimulation (%) α5β2γ2 [5, 18]: 89.65 ± 3.44%
- effect on hCav3.2 calcium peak currents (in words) [1]: dose dependently inhibited; also recorded: effectively inhibits high and low affinity hCav3.2 inward currents
- Relative current amplitude (%) ([1]; 0.3 μM): 86.99 ± 1.56 %
- Relative current amplitude (%) ([1]; 1 μM): 81.61 ± 1.31 %
- Relative current amplitude (%) ([1]; 3 μM): 76.21 ± 1.61 %
- Relative current amplitude (%) ([1]; 10 μM): 71.22 ± 2.40 %
- Relative current amplitude (%) ([1]; 30 μM): 73.04 ± 1.64 %
- Relative current amplitude (%) ([1]; 50 μM): 61.44 ± 4.96 %
- Relative current amplitude (%) ([1]; 100 μM): 54.68 ± 6.35 %
- Relative current amplitude (%) ([1]; 250 μM): 46.92 ± 6.64 %
- Relative current amplitude (%) ([1]; 500 μM): 51.83 ± 4.77 %
- Relative current amplitude (%) ([1]; 1000 μM): 45.48 ± 4.94 %
- IC50 [1, 13]: 0.43 µM
- IC50 [1, 14]: 62.6 µM
- effects upon sub-maximal GABA currents (in words) [6]: devoid of effects
- controlling seizures in mouse absence seizure models [7]: effective in controlling seizures
